Test results taken from patent US20090099215A1, “Metabolic enhancing properties of norphenephrine and its salts” (priority 2007, published 2009).

Assay: oral administration of norphenephrine and its salts to users: metabolic, appetite, mental and addiction effects
Assay type: in vivo, human

With `NCC(O)c1cccc(O)c1` (centres unmarked) [norphenephrine, Norphenephrine] the “time until the user experiences a vastly reduced appetite for food” value (after intake) was at most 30 min, the “interaction with caffeine (metabolic enhancement)” value (co-administration of caffeine) was “synergy between caffeine and norphenephrine is observed” and the “addictive / habituating nature” value (even at high dosages, compared with amphetamines) was “not addictive, or even habituating”. For the same molecule, the “adipose tissue loss versus lean body mass” value (in vivo) was “specifically enhance the loss of adipose tissue while preserving lean body mass”, the “focus, acuity and psychological outlook” value (in vivo) was “sustained and noticeable effect” and the overall metabolic rate (in vivo) was “increase a user's overall metabolic rate”. For the same molecule, the insulin sensitivity (muscle tissue apart from adipose tissue) was “specifically increase insulin sensitivity in muscle tissue” and the fat mass (no changes to the user's current diet and exercise regimen) was “noticeable and quantifiable decrease in fat mass”.
